Tested on: OSCC cell lines (SCC-4, SCC-9, and SCC-25)
Test: Average selectivity index over three OSCC cell lines (MTT)
Assay type: cell-based, human
Conditions: average of SI for SCC-4, SCC-9 and SCC-25 vs normal oral fibroblasts
Experimental: Human SCC-4, SCC-9, and SCC-25 cells, derived from a human oral tongue SCC (squamous cell carcinoma), were obtained from ATCC (CRL-1624, CRL-1629, and CRL-1628, respectively) and maintained in 1:1 DMEM/F12 (Dulbecco’s modified Eagle’s medium and Ham’s F12 medium; Gibco (Thermo Fisher, Waltham, MA, USA)) supplemented with 10% (v/v) FBS (fetal bovine serum; Invitrogen, Thermo Fisher, Waltham, MA, USA) and 400 ng/mL hydrocortisone (Sigma-Aldrich Corporation, St. Louis, MO, USA). B16-F10 (melanoma; CRL-6475), HCT-116 (colorectal cancer; CCL-247), and HepG2 (liver cancer; HB-8065), in addition to primary normal human gingival fibroblasts obtained from ATCC (PCS-201-018), were maintained in DMEM supplemented with 10% (v/v) of FBS and were used in a maximum of six passages. Cells were grown in a humidified environment containing 5% CO2 at 37 °C. For all biological assays, compounds and shikonin were solubilized in 100% DMSO (all Sigma-Aldrich Corp.) to a final concentration of 10 mM and lapachol in ethanol. The carboplatin control was prepared in water (Fauldcarbo; Libbs Farmacêutica, São Paulo, SP, Brazil) and was used as a standard anticancer compound.
The viability of OSCC cell lines and primary human fibroblast cells was assessed using the MTT assay as in ref . Briefly, cells were grown in triplicate in 96-well plates (5 × 10^3 cells/well) until confluence. Then, the medium was removed, fresh medium was added, and the cells were returned to the incubator in the presence of different compounds. DMSO at the same concentration was used as a control for 100% cell viability. After 72 h, cells were incubated with 0.5 mg/mL of MTT reagent (3-(4,5-dimethyl-2-thiazolyl)-2,5-diphenyl-2-H-tetrazolium bromide) (Sigma-Aldrich Corporation, Louis, MO, USA) for 3.5 h. Then, the wells containing the cells were washed with PBS heated to 37 °C, the formazan crystals were dissolved in a solvent solution (DMSO/methanol 1:1 v/v), and the absorbance was read at 560 nm using an EPOCH microplate spectrophotometer (BioTek Instruments, Winooski, VT, USA) with the background absorbance at 670 nm subtracted. Control chemotherapeutics (carboplatin and shikonin) were used.
Data are presented as means ± SD. IC50 values for the MTT assays were obtained by nonlinear regression using the […] 8.4.3.0 program (Intuitive Software for Science, San Diego, CA, USA) from at least three independent experiments. A dose–response curve (inhibitor) vs response using the least-squares method was used to determine the IC50, SD, and R2 of the data. The selectivity index was calculated as SI = IC50 of the compound in normal oral fibroblast cells/IC50 of the same compound for each oral cancer cell line (SCC-4, SCC-9, and SCC-25) and averaged when indicated.

Q: How did the “average SI” value turn out when `CC1(C)OC2=C(C(=O)c3ccccc3C2=O)C(Sc2ccccc2)C1Sc1ccccc1` (stereo not shown) [7a, 2,2-Dimethyl-3,4-bis(phenylthio)-3,4-dihydro-2H-benzo[g]chromene-5,10-dione] was run?
A: 3.2

From publication PMC12444508, “Mechanistic Insights into the Anticancer Action of Novel 2‑Hydroxy-1,4-naphthoquinone Thiol Derivatives” (ACS Omega, 2025)
